We go through 34 compounds from US20130131075A1, “NEW COMPOUNDS” (Boehringer Ingelheim International GmbH, priority 2009, published 2013).

This experiment has as its target T1, cynomolgus BK1-receptor (Macaca fascicularis, UniProt Q3BCU0).
T1 construct: expressed in transfected cells; host or cells: CHO cells (homogenate)
T1 sequence (Q3BCU0 1-352): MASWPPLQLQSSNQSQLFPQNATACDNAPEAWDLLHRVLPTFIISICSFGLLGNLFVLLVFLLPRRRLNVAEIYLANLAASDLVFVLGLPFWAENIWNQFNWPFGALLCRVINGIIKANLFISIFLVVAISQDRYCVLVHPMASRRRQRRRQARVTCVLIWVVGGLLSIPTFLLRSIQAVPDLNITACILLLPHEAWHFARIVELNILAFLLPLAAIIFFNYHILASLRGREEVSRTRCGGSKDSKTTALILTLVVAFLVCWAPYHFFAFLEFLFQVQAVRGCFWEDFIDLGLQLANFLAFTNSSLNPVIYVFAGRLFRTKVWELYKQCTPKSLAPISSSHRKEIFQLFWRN
As to the kind of experiment: cynoBK1-receptor binding assay. The following applies: CHO cells expressing cynomolgus BK1-receptor, radioligand kallidine (DesArg10,Leu9). The method in brief: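 Radioligand competition on homogenates of CHO cells expressing cynomolgus BK1 receptor (50 to 250 μg protein/assay), incubated 60-180 minutes at ambient temperature with 0.5 to 5.0 nM [3H]kallidine (DesArg10,Leu9) plus increasing test compound. Filtration binding; non-specific defined with 1.0 μM kallidine (DesArg10); Ki from non-linear curve fitting.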
One may read the Ki as a dissociation constant, usually derived from enzyme kinetics or from competition with a known ligand. A high value points to weaker binding. `O=C(NC1(C(=O)NCc2ccc(Nc3ccc(Cl)cc3C(F)(F)F)cn2)CC1)c1cnsc1` [(358)]: affinity was put at a Ki of 37 nM.

`Cc1cc(Nc2ccccc2C(F)(F)F)cnc1CNC(=O)[C@]1(NC(=O)c2cncc(N)c2)CCOC1` [(359)]: affinity was put at a Ki of 125 nM.

On to `Cc1ncc(C(=O)NC2(C(=O)NCc3ncc(Nc4ccc(Cl)cc4C(F)(F)F)cc3C)CC2)cn1` [(360)], for which the inhibition constant (Ki) turned out to be 2.5 nM.

Compound `Cc1cc(Nc2ccc(Cl)cc2C(F)(F)F)cnc1CNC(=O)C1(NC(=O)c2cncc(N)c2)CC1` [(361)] returned an inhibitory constant (Ki) of 10 nM.

For `O=C(NC1(C(=O)NCc2ccc(Nc3ccc(Cl)cc3C(F)(F)F)cn2)CC1)C(F)(F)F` [(362)], the affinity corresponds to a Ki of 101 nM.

The compound `O=C(CC(F)(F)F)NC1(C(=O)NCc2ccc(Nc3ccc(Cl)cc3C(F)(F)F)cn2)CC1` [(363)] returned an inhibitory constant (Ki) of 45 nM.

Regarding `N#CCC(=O)NC1(C(=O)NCc2ccc(Nc3ccc(Cl)cc3C(F)(F)F)cn2)CC1` [(364)], the Ki is 77 nM.

For the compound `O=C(N[C@@]1(C(=O)NCc2ccc(Nc3ccc(F)cc3C(F)(F)F)cc2)CCOC1)c1cnc2cc[nH]c2c1` [(365)], affinity was put at a Ki of 376 nM.

In turn, `Cc1ncc(C(=O)N[C@@]2(C(=O)NCc3ncc(Nc4ccccc4C(F)(F)F)cc3C)CCOC2)cn1` [(366)] displayed an inhibitory constant (Ki) of 33 nM.

Consider `N#CC1(C(=O)NC2(C(=O)NCc3ccc(Nc4ccc(Cl)cc4C(F)(F)F)cn3)CC2)CC1` [(367)], for which the inhibitory constant (Ki) was 508 nM.

`CC(C#N)C(=O)NC1(C(=O)NCc2ccc(Nc3ccc(Cl)cc3C(F)(F)F)cn2)CC1` (stereo not shown) [(368)] displayed a Ki of 42 nM.

On to `O=C(NC1(C(=O)NCc2ccc(Nc3ccc(Cl)cc3C(F)(F)F)cn2)CC1)c1ccno1` [(369)], for which the affinity, expressed as Ki, was 37 nM.

With `Nc1ncc(C(=O)NC2(C(=O)NCc3ccc(Nc4ccc(Cl)cc4C(F)(F)F)cn3)CC2)cn1` [(370)], the inhibitory constant (Ki) was 1.4 nM.

In the case of `CCc1ncc(C(=O)NC2(C(=O)NCc3ccc(Nc4ccc(Cl)cc4C(F)(F)F)cn3)CC2)cn1` [(371)], the Ki stood at 6.1 nM.

On to `O=C(NC1(C(=O)NCc2ccc(Nc3ccc(Cl)cc3C(F)(F)F)cn2)CC1)c1cn[nH]c1` [(372)], for which the Ki stood at 24 nM.

Compound `Cn1cc(C(=O)NC2(C(=O)NCc3ccc(Nc4ccc(Cl)cc4C(F)(F)F)cn3)CC2)cn1` [(373)] had a Ki of 95 nM.

Turning to `Cc1ncc(C(=O)NC2(C(=O)NCc3ncc(Nc4ccccc4C(F)(F)F)cc3C)CC2)cn1` [(374)], the inhibitory constant (Ki) was 5.5 nM.

Compound `Cc1cc(Nc2ccccc2C(F)(F)F)cnc1CNC(=O)C1(NC(=O)c2cncc(N)c2)CC1` [(375)] had a Ki of 48 nM.

Take `COc1cncc(C(=O)NC2(C(=O)NCc3ccc(Nc4ccc(F)cc4C(F)(F)F)cn3)CC2)c1` [(376)]: the affinity corresponds to a Ki of 61 nM.

For the compound `CNc1ccc(C(=O)NC2(C(=O)NCc3ccc(Nc4ccc(F)cc4C(F)(F)F)cn3)CC2)cn1` [(377)], affinity was put at a Ki of 45 nM.

The compound `Nc1ncc(C(=O)NC2(C(=O)NCc3ccc(Nc4ccc(Cl)cc4C(F)(F)F)cn3)CC2)cc1Br` [(378)] returned a Ki of 4.6 nM.

As to `O=C(NC1(C(=O)NCc2ccc(Nc3ccc(Cl)cc3C(F)(F)F)cn2)CC1)c1cnc(NC2CC2)nc1` [(379)], the affinity corresponds to a Ki of 5.5 nM.

`CCCNc1ncc(C(=O)NC2(C(=O)NCc3ccc(Nc4ccc(Cl)cc4C(F)(F)F)cn3)CC2)cn1` [(380)] had a Ki of 6.5 nM.

Regarding `COc1cncc(C(=O)N[C@@]2(C(=O)NCc3ccc(Nc4ccc(F)cc4C(F)(F)F)cc3)CCOC2)c1` [(381)], the affinity, expressed as Ki, was 93 nM.

In turn, `CC(C)Nc1ncc(C(=O)NC2(C(=O)NCc3ccc(Nc4ccc(Cl)cc4C(F)(F)F)cn3)CC2)cn1` [(382)] gave a Ki of 6.8 nM.

As to `O=C(N[C@@]1(C(=O)NCc2ccc(Nc3ccc(F)cc3C(F)(F)F)cc2)CCOC1)c1cnc2[nH]ccc2c1` [(383)], the inhibition constant Ki turned out to be 225 nM.

`O=C(NC1(C(=O)NCc2ccc(Nc3ccc(F)cc3C(F)(F)F)cn2)CC1)c1cnc2[nH]ccc2c1` [(384)]: the affinity, expressed as Ki, was 21 nM.

`N#Cc1ncc(C(=O)NC2(C(=O)NCc3ccc(Nc4ccc(Cl)cc4C(F)(F)F)cn3)CC2)cn1` [(385)] registered a Ki of 9.4 nM.

The compound `Cc1ncc(C(=O)NC2(C(=O)NCc3ccc(Nc4ccc(Cl)cc4C(F)F)cn3)CC2)cn1` [(386)] displayed a Ki of 15 nM.

With `Cc1ncc(C(=O)N[C@@]2(C(=O)NCc3ncc(Nc4ccc(F)cc4C(F)(F)F)cc3C)CCOC2)cn1` [(387)], the inhibitory constant (Ki) amounted to 10 nM.

In turn, `O=C(N[C@@]1(C(=O)NCc2ccc(Nc3ccc(Cl)cc3C(F)(F)F)cc2)CCOC1)c1cnc2[nH]ccc2c1` [(388)] returned a Ki of 386 nM.

`O=C(NC1(C(=O)NCc2ccc(Nc3ccc(Cl)cc3C(F)(F)F)cn2)CC1)c1ccc(NC2CC2)nc1` [(389)] returned a Ki of 15 nM.

For `CCOc1ncc(C(=O)NC2(C(=O)NCc3ccc(Nc4ccc(Cl)cc4C(F)(F)F)cn3)CC2)cn1` [(390)], the Ki worked out at 7.3 nM.

For the compound `Cc1cc(C(=O)NC2(C(=O)NCc3ccc(Nc4ccc(F)cc4C(F)(F)F)cn3)CC2)cnc1N` [(391)], the Ki came out at 9.3 nM.
